The source made the active and inactive calls. No cut-off for these calls is given here.
Assays:
[1] = system: CCRF-CEM; assay: Cytotoxicity against human CEM cells assessed as viable cells after 72 hrs by calcein AM assay; format: functional, cell-based
[2] = system: MCF7; assay: Cytotoxicity against human MCF7 cells assessed as viable cells after 72 hrs by calcein AM assay; format: functional, cell-based; details: MCF7, 72 h
[3] = system: G-361; assay: Cytotoxicity against human G361 cells assessed as viable cells after 72 hrs by calcein AM assay; format: functional, cell-based; details: G-361, 72 h
[4] = system: A549; assay: Cytotoxicity against human A549 cells assessed as viable cells after 72 hrs by calcein AM assay; format: functional, cell-based; details: A549, 72 h
[5] = system: BJ; assay: Cytotoxicity against human BJ cells assessed as viable cells after 72 hrs by calcein AM assay; format: cell-based
[6] = system: HeLa; assay: Cytotoxicity against human HeLa cells assessed as viable cells after 72 hrs by calcein AM assay; format: functional, cell-based
[7] = system: HOS; assay: Cytotoxicity against human HOS cells assessed as viable cells after 72 hrs by calcein AM assay; format: functional, cell-based
[8] = Cytotoxicity against human T98 cells assessed as viable cells after 72 hrs by calcein AM assay; format: functional, cell-based; details: T98, 72 h
[9] = system: HCT-116; assay: Cytotoxicity against human HCT116 assessed as viable cells after 72 hrs by calcein AM assay; format: functional, cell-based; details: HCT-116, 72 h
[10] = system: CCRF-CEM; assay: Induction of apoptosis in human CEM cells assessed as cleavage of PARP at 5 to 10 uM after 24 hrs by Western blot analysis relative to untreated control; format: functional, cell-based
[11] = system: CCRF-CEM; assay: Induction of apoptosis in human CEM cells assessed as increase in Bcl-2 protein level after 24 hrs by Western blot analysis relative to untreated control; format: functional, cell-based
[12] = system: CCRF-CEM; assay: Induction of apoptosis in human CEM cells assessed as effect on […] protein expression at 5 to 10 uM after 24 hrs by Western blot analysis relative to untreated control; format: functional, cell-based
[13] = system: CCRF-CEM; assay: Induction of apoptosis in human CEM cells assessed as effect on retinoblastoma protein expression at 5 to 10 uM after 24 hrs by Western blot analysis relative to untreated control; format: functional, cell-based
[14] = system: CCRF-CEM; assay: Induction of apoptosis in human CEM cells assessed as accumulation of caspase-3 after 24 hrs by Western blot analysis relative to untreated control; format: functional, cell-based
[15] = system: CCRF-CEM; assay: Induction of apoptosis in human CEM cells assessed as increase in caspase-7 activity using Ac-DEVD-AMC as a substrate at 7.5 uM after 24 hrs by fluorescence microplate reader assay relative to untreated control; format: functional
[16] = system: CCRF-CEM; assay: Induction of apoptosis in human CEM cells assessed as increase in caspase-7 activity using Ac-DEVD-AMC as a substrate at 10 uM after 24 hrs by fluorescence microplate reader assay relative to untreated control; format: functional
[17] = system: CCRF-CEM; assay: Induction of cell cycle arrest in human CEM cells assessed as increase in accumulation of cells at S-phase after 24 hrs by flow cytometric analysis relative to untreated control; format: functional, cell-based
[18] = system: CCRF-CEM; assay: Induction of cell cycle arrest in human CEM cells assessed as increase in accumulation of cells at G2/M-phase after 24 hrs by flow cytometric analysis relative to untreated control; format: functional, cell-based
[19] = system: CCRF-CEM; assay: Induction of cell cycle arrest in human CEM cells assessed as reduction in accumulation of cells at G0/G1-phase after 24 hrs by flow cytometric analysis relative to untreated control; format: functional, cell-based
[20] = system: CCRF-CEM; assay: Induction of apoptosis in human CEM cells assessed as increase in amount of DNA at subG1-phase after 24 hrs by flow cytometric analysis relative to untreated control; format: functional, cell-based
[21] = system: CCRF-CEM; assay: Induction of apoptosis in human CEM cells assessed as increase in caspase-3 activity using Ac-DEVD-AMC as a substrate at 7.5 uM after 24 hrs by fluorescence microplate reader assay relative to untreated control; format: functional
[22] = system: CCRF-CEM; assay: Induction of apoptosis in human CEM cells assessed as increase in caspase-3 activity using Ac-DEVD-AMC as a substrate at 10 uM after 24 hrs by fluorescence microplate reader assay relative to untreated control; format: functional

SMILES	IC50 [1]	IC50 [2]	IC50 [3]	IC50 [4]	IC50 [5]	IC50 [6]	IC50 [7]	IC50 [8]	IC50 [9]	further results
COc1ccc(C(=O)O[C@H]2[C@H](O[C@@H]3[C@@H](OC(C)=O)[C@H](O[C@H]4C[C@H]5[C@@H]6CC=C7C[C@@H](O)CC[C@]7(C)[C@H]6CC[C@]5(C)[C@@]4(O)[C@H](C)COC(=O)c4ccccc4)OC[C@@H]3O)OC[C@@H](O)[C@@H]2O)cc1	70 nM	700 nM	1660 nM	170 nM	100 nM	–	–	–	–	–
CCCCCCCCCCCC(=O)OC[C@@H](C)[C@@]1(O)[C@@H](O[C@@H]2OC[C@H](O)[C@H](O[C@@H]3OC[C@@H](O)[C@H](O)[C@H]3OC(=O)c3ccc(OC)cc3)[C@H]2OC(C)=O)C[C@H]2[C@@H]3CC=C4C[C@@H](O)CC[C@]4(C)[C@H]3CC[C@@]21C	6.3 nM	21 nM	8 nM	930 nM	5 nM	42 nM	1900 nM	7 nM	2800 nM	–
COc1ccc(C(=O)O[C@H]2[C@H](O[C@@H]3[C@@H](OC(C)=O)[C@H](O[C@H]4C[C@H]5[C@@H]6CC=C7C[C@@H](O)CC[C@]7(C)[C@H]6CC[C@]5(C)[C@@]4(O)[C@H](C)COCc4ccccc4)OC[C@@H]3O)OC[C@@H](O)[C@@H]2O)cc1	20 nM	600 nM	750 nM	100 nM	300 nM	200 nM	–	–	–	–
CCCCC(=O)OC[C@@H](C)[C@@]1(O)[C@@H](O[C@@H]2OC[C@H](O)[C@H](O[C@@H]3OC[C@@H](O)[C@H](O)[C@H]3OC(=O)c3ccc(OC)cc3)[C@H]2OC(C)=O)C[C@H]2[C@@H]3CC=C4C[C@@H](O)CC[C@]4(C)[C@H]3CC[C@@]21C	60 nM	500 nM	390 nM	160 nM	500 nM	170 nM	–	–	–	–
CCCCCCC(=O)OC[C@@H](C)[C@@]1(O)[C@@H](O[C@@H]2OC[C@H](O)[C@H](O[C@@H]3OC[C@@H](O)[C@H](O)[C@H]3OC(=O)c3ccc(OC)cc3)[C@H]2OC(C)=O)C[C@H]2[C@@H]3CC=C4C[C@@H](O)CC[C@]4(C)[C@H]3CC[C@@]21C	10 nM	400 nM	1280 nM	20 nM	600 nM	30 nM	–	–	–	–
C=CCCCCC(=O)OC[C@@H](C)[C@@]1(O)[C@@H](O[C@@H]2OC[C@H](O)[C@H](O[C@@H]3OC[C@@H](O)[C@H](O)[C@H]3OC(=O)c3ccc(OC)cc3)[C@H]2OC(C)=O)C[C@H]2[C@@H]3CC=C4C[C@@H](O)CC[C@]4(C)[C@H]3CC[C@@]21C	21 nM	54 nM	44 nM	840 nM	20 nM	61 nM	6500 nM	43 nM	11000 nM	–
CCCCCCCCC(=O)OC[C@@H](C)[C@@]1(O)[C@@H](O[C@@H]2OC[C@H](O)[C@H](O[C@@H]3OC[C@@H](O)[C@H](O)[C@H]3OC(=O)c3ccc(OC)cc3)[C@H]2OC(C)=O)C[C@H]2[C@@H]3CC=C4C[C@@H](O)CC[C@]4(C)[C@H]3CC[C@@]21C	7.2 nM	26 nM	15 nM	590 nM	7 nM	47 nM	2800 nM	11 nM	4900 nM	–
C/C=C/C(=O)OC[C@@H](C)[C@@]1(O)[C@@H](O[C@@H]2OC[C@H](O)[C@H](O[C@@H]3OC[C@@H](O)[C@H](O)[C@H]3OC(=O)c3ccc(OC)cc3)[C@H]2OC(C)=O)C[C@H]2[C@@H]3CC=C4C[C@@H](O)CC[C@]4(C)[C@H]3CC[C@@]21C	340 nM	840 nM	890 nM	550 nM	230 nM	1940 nM	> 50000 nM	940 nM	> 50000 nM	Activity [10]: Active; Activity [11]: Dose-dependent effect; Activity [12]: inactive; Activity [13]: inactive; Activity [14]: Dose-dependent effect; fold change (FC) [15]: 3; fold change (FC) [16]: 3; Activity [17]: Dose-dependent effect; Activity [18]: Dose-dependent effect; Activity [19]: Dose-dependent effect; Activity [20]: Active; fold change (FC) [21]: 3; fold change (FC) [22]: 3
COc1ccc(C(=O)O[C@H]2[C@H](O[C@@H]3[C@@H](OC(C)=O)[C@H](O[C@H]4C[C@H]5[C@@H]6CC=C7C[C@@H](O)CC[C@]7(C)[C@H]6CC[C@]5(C)[C@@]4(O)[C@H](C)C(=O)CCC(C)C)OC[C@@H]3O)OC[C@@H](O)[C@@H]2O)cc1	0.3 nM	2.4 nM	1000 nM	27 nM	0.2 nM	3.4 nM	8200 nM	70 nM	8400 nM	–
CC(C)CCC(=O)[C@@H](C)[C@@]1(O)[C@@H](O)C[C@H]2[C@@H]3CC=C4C[C@@H](O)CC[C@]4(C)[C@H]3CC[C@@]21C	> 50000 nM	> 50000 nM	> 50000 nM	> 50000 nM	> 50000 nM	> 50000 nM	> 50000 nM	> 50000 nM	> 50000 nM	–
CCCCCCCCCCCCCC(=O)OC[C@@H](C)[C@@]1(O)[C@@H](O[C@@H]2OC[C@H](O)[C@H](O[C@@H]3OC[C@@H](O)[C@H](O)[C@H]3OC(=O)c3ccc(OC)cc3)[C@H]2OC(C)=O)C[C@H]2[C@@H]3CC=C4C[C@@H](O)CC[C@]4(C)[C@H]3CC[C@@]21C	16 nM	48 nM	30 nM	720 nM	83 nM	67 nM	2700 nM	28 nM	2800 nM	–
CCCCCCCCCCCCCCCCCC(=O)OC[C@@H](C)[C@@]1(O)[C@@H](O[C@@H]2OC[C@H](O)[C@H](O[C@@H]3OC[C@@H](O)[C@H](O)[C@H]3OC(=O)c3ccc(OC)cc3)[C@H]2OC(C)=O)C[C@H]2[C@@H]3CC=C4C[C@@H](O)CC[C@]4(C)[C@H]3CC[C@@]21C	58 nM	195 nM	300 nM	550 nM	80 nM	435 nM	> 50000 nM	210 nM	> 50000 nM	–

— ChEMBL document CHEMBL1773000, “Synthesis and biological activity of 22-deoxo-23-oxa analogues of saponin OSW-1” (J Med Chem, 2011)
